Assay results: ChEMBL document CHEMBL5335777 (Eur J Med Chem, 2023)
pIC50: −log10 of the molar value. Activity calls are given as the source filed them. The rule behind the calls is not given here.

Assays:
[1] = Volume of distribution in NOD-SCID mouse at 15 mg/kg, ip administered as single dose and measured upto 48 hrs by HPLC/MS analysis; format: ADME, organism-based; conditions: in vivo
[2] = Cytotoxicity against human CCD-986Sk cells assessed as inhibition of cell growth incubated for 72 hrs by MTT assay; format: toxicity, cell-based
[3] = test system: NCI-H358; test: Antiproliferative activity against human NCI-H358 cells harboring heterozygous KRAS G12C mutant assessed as inhibition of cell growth incubated for 72 hrs by MTT assay; format: functional, cell-based; conditions: NCI-H358, 72 h
[4] = test system: GTPase KRas (Homo sapiens), P01116 [G12C]; test: Covalent binding affinity to GDP-bound human KRAS-4B G12C mutant (1 to 169 residues) expressed in Escherichia coli BL21 Rosetta cells at 200 uM measured after 4 hrs by Ellman's assay
[5] = test system: PANC-1; test: Antiproliferative activity against human PANC-1 cells harboring heterozygous KRAS G12D mutant assessed as inhibition of cell growth incubated for 72 hrs by MTT assay; format: functional, cell-based; conditions: PANC-1, 72 h
[6] = Antiproliferative activity against human HCA-7 cells harboring wild type KRAS assessed as inhibition of cell growth incubated for 72 hrs by MTT assay; format: functional, cell-based, HCA7; conditions: HCA-7, 72 h
[7] = test system: NCI-H1792; test: (§1) Antitumor activity against human NCI-H1792 cells harboring KRAS G12C mutant xenografted in immunodeficient NOD-SCID mouse assessed as reduction in tumor growth at 5 to 30 mg/kg, ip administered for 5 times at 5 mg/kg in first week followed by administration at 20 mg/kg 5 times in second week and further administered 30 mg/kg 3 times in third week measured 17 days post treatment initiation and 35 days post tumor transplantation by digital caliper based analysis relative to control; format: functional; design: scale not given: the % may be the effect or the level left; conditions: dose 5-30 mg/kg, time 17 day
[8] = test system: LCLC-103H cell line; test: as §1, with “LCLC-103H” for “NCI-H1792”, “harboring wild type” for “harboring”, “KRAS” for “KRAS G12C mutant”, “as” for “as reduction in”, “volume” for “growth”, “analysis” for “analysis relative to control”; format: functional; conditions: dose 5-30 mg/kg, time 17 day
[9] = Tmax in NOD-SCID mouse at 15 mg/kg, ip administered as single dose and measured upto 48 hrs by HPLC/MS analysis; format: ADME, organism-based; conditions: in vivo
[10] = test system: GTPase KRas (Homo sapiens), P01116 [G12C]; test: Binding affinity to Cys12 residue of GDP bound human KRAS-4B G12C mutant (1 to 169 residues) expressed in Escherichia coli BL21 Rosetta cells at 150 to 500 uM measured after 96 hrs by 1H-15N HSQC NMR spectral analysis; conditions: dose 150-500 µM
[11] = test system: GTPase KRas (Homo sapiens), P01116 [G12C]; test: Binding affinity to Cys51 residue of GDP bound human KRAS-4B G12C mutant (1 to 169 residues) expressed in Escherichia coli BL21 Rosetta cells at 150 to 500 uM measured after 96 hrs by 1H-15N HSQC NMR spectral analysis; conditions: dose 150-500 µM
[12] = Cytotoxicity against human MRC5 cells assessed as inhibition of cell growth incubated for 72 hrs by MTT assay; format: toxicity, cell-based
[13] = AUCt in NOD-SCID mouse at 15 mg/kg, ip administered as single dose and measured upto 48 hrs by HPLC/MS analysis; format: ADME, organism-based; design: dose 15 mg/kg, time < 48 hrs, route ip; conditions: in vivo
[14] = test system: SW1573; test: Antiproliferative activity against human SW1573 cells harboring homozygous KRAS G12C mutant assessed as inhibition of cell growth incubated for 72 hrs by MTT assay; format: functional, cell-based; conditions: SW1573, 72 h
[15] = test system: GTPase KRas (Homo sapiens), P01116 [G12C]; test: Binding affinity to Cys118 residue of GDP bound human KRAS-4B G12C mutant (1 to 169 residues) expressed in Escherichia coli BL21 Rosetta cells at 150 to 500 uM measured after 96 hrs by 1H-15N HSQC NMR spectral analysis; conditions: dose 150-500 µM
[16] = test system: NCI-H1792; test: Antiproliferative activity against human NCI-H1792 cells harboring KRAS G12C mutant assessed as reduction in cell viability at 2.5 uM incubated for 72 hrs by MTT assay; format: functional, cell-based
[17] = test system: GTPase KRas (Homo sapiens), P01116 [G12C]; test: Covalent binding affinity to GDP-bound human KRAS-4B G12C mutant (1 to 169 residues) expressed in Escherichia coli BL21 Rosetta cells at 200 uM measured after 1 hr by Ellman's assay
[18] = test system: SW480; test: Antiproliferative activity against human SW480 cells harboring homozygous KRAS G12V mutant assessed as inhibition of cell growth incubated for 72 hrs by MTT assay; format: functional, cell-based; conditions: SW480, 72 h
[19] = Cytotoxicity against HUVEC cells immortalized with TERT assessed as inhibition of cell growth incubated for 72 hrs by MTT assay; format: toxicity, cell-based; conditions: human
[20] = test system: MIA PaCa-2; test: Antiproliferative activity against human MIA PaCa-2 cells harboring homozygous KRAS G12C mutant assessed as inhibition of cell growth incubated for 72 hrs by MTT assay; format: functional, cell-based; conditions: MIA PaCa-2, 72 h
[21] = Half life in NOD-SCID mouse at 15 mg/kg, ip administered as single dose and measured upto 48 hrs by HPLC/MS analysis; format: ADME, organism-based; conditions: in vivo
[22] = test system: LCLC-103H cell line; test: Antiproliferative activity against human LCLC-103H cells harboring wild type KRAS assessed as inhibition of cell growth incubated for 72 hrs by MTT assay; format: functional, cell-based
[23] = test system: BXPC-3; test: Antiproliferative activity against human BXPC-3 cells harboring wild type KRAS assessed as inhibition of cell growth incubated for 72 hrs by MTT assay; format: functional, cell-based; conditions: BXPC-3, 72 h
[24] = (§2) Toxicity in immunodeficient NOD-SCID mouse xenografted with human NCI-H1792 cells harboring KRAS G12C mutant assessed as body weight at 5 to 30 mg/kg, ip administered for 5 times at 5 mg/kg in first week followed by administration at 20 mg/kg 5 times in second week and further administered 30 mg/kg 3 times in third week measured 20 days post treatment initiation and 38 days post tumor transplantation (reference value: 6.6 g); format: organism-based; conditions: in vivo, 480 h, dose 5-30 mg/kg, time 20 day
[25] = test system: NCI-H1792; test: Antiproliferative activity against human NCI-H1792 cells harboring KRAS G12C mutant assessed as cell viability at 25 uM incubated for 72 hrs by MTT assay relative to control; format: functional; conditions: read-out: Activity
[26] = Clearance in NOD-SCID mouse at 15 mg/kg, ip administered as single dose and measured upto 48 hrs by HPLC/MS analysis; format: ADME, organism-based; conditions: in vivo
[27] = as §2, with “measured 17” for “measured 20”, “and 35” for “and 38”; format: organism-based; conditions: in vivo, 408 h, dose 5-30 mg/kg, time 17 day
[28] = as §2, with “human LCLC-103H” for “human NCI-H1792”, “harboring wild type” for “harboring”, “KRAS” for “KRAS G12C mutant”, “measured 17” for “measured 20”, “and 35” for “and 38”, “value: 2.6” for “value: 6.6”; format: organism-based; conditions: in vivo, 408 h, dose 5-30 mg/kg, time 17 day
[29] = test system: A549; test: Antiproliferative activity against human A549 cells harboring homozygous KRAS G12S mutant assessed as inhibition of cell growth incubated for 72 hrs by MTT assay; format: functional, cell-based; conditions: A549, 72 h
[30] = test system: GTPase KRas (Homo sapiens), P01116 [G12C]; test: Covalent binding affinity to GDP-bound human KRAS-4B G12C mutant (1 to 169 residues) expressed in Escherichia coli BL21 Rosetta cells assessed as labelling on Cys12 residue by intact LCMS analysis
[31] = Cmax in NOD-SCID mouse at 15 mg/kg, ip administered as single dose and measured upto 48 hrs by HPLC/MS analysis; format: ADME, organism-based; design: time < 48 hrs, dose 15 mg/kg, route ip; conditions: in vivo
[32] = test system: NCI-H1792; test: Antiproliferative activity against human NCI-H1792 cells harboring heterozygous KRAS G12C mutant assessed as inhibition of cell growth incubated for 72 hrs by MTT assay; format: functional, cell-based; conditions: NCI-H1792, 72 h
[33] = test system: GTPase KRas (Homo sapiens), P01116 [G12C]; test: Covalent binding affinity to GDP-bound human KRAS-4B G12C mutant (1 to 169 residues) expressed in Escherichia coli BL21 Rosetta cells assessed as reduction in free Cys residues at 200 uM measured after 1 hr by Ellman's assay
[34] = test system: GTPase KRas (Homo sapiens), P01116 [G12C]; test: Binding affinity to Cys80 residue of GDP bound human KRAS-4B G12C mutant (1 to 169 residues) expressed in Escherichia coli BL21 Rosetta cells at 150 to 500 uM measured after 96 hrs by 1H-15N HSQC NMR spectral analysis; conditions: dose 150-500 µM
[35] = test system: GTPase KRas (Homo sapiens), P01116 [G12C]; test: Reversible binding affinity to GDP-bound human KRAS-4B G12C mutant (1 to 169 residues) expressed in Escherichia coli BL21 Rosetta cells by intact LCMS analysis
[36] = test system: GTPase KRas (Homo sapiens), P01116 [G12C]; test: Covalent binding affinity to GDP-bound human KRAS-4B G12C mutant (1 to 169 residues) expressed in Escherichia coli BL21 Rosetta cells at 200 uM measured after 15 mins by Ellman's assay
[37] = species on record: Homo sapiens; test: Inhibition of GDP-bound human KRAS 149stop G12C mutant expressed in Escherichia coli BL21 Rosetta cells assessed as inhibition of SOS1 mediated nucleotide exchange at 250 uM measured after 24 hrs by fluorescence based analysis
[38] = species on record: Homo sapiens; test: Inhibition of GDP-bound human KRAS 149stop G12C mutant expressed in Escherichia coli BL21 Rosetta cells assessed as inhibition of EDTA mediated nucleotide exchange at 250 uM measured after 24 hrs by fluorescence based analysis

Row | SMILES | Vd [1] [mL] | IC50 at 72 h [2] [µM] | pIC50 [3] | Activity [4] [%] | pIC50 [5] | pIC50 [6] | Activity [7] [%] | Activity [8] [mm3] | Tmax [9] [h] | Activity [10] | Activity [11] | IC50 at 72 h [12] [µM] | AUC(0-t) at 48 h [13] [ng·h/mL] | pIC50 [14] | Activity [15] | Activity [16] | pIC50 [18] | IC50 at 72 h [19] [µM] | pIC50 [20] | half-life [21] [h] | further results
1 | O=C1Nc2cc(Cl)cc(Cl)c2C1=O | 12096 | 42.7 | 4.77 | 50 | 4.42 | 5.01 | 35.8 | 13.3 | 0.25 | Active | inactive | 47.9 | 169 | 4.63 | inactive | Active | 4.83 | 24.4 | 4.86 | 4.4 | Activity [17]: Active; pIC50 [22]: 4.52; pIC50 [23]: 4.88; Activity [24]: 9.1 g; viability at 25 µM [25]: < 50%; CL/F [26]: 31.6 mL/min; Activity [27]: 6.9 g; Activity [28]: 2.8 g; pIC50 [29]: 4.35; Activity [30]: Active; Cmax [31]: 337 ng/mL; pIC50 [32]: 4.96; Activity [33]: Active; Activity [34]: inactive
2 | O=Cc1c(O)ccc2ccccc12 | 63.6 | 66.2 | 4.91 | 100 | 4.56 | 4.58 | 32.5 | 9.2 | 0.25 | Active | inactive | 25 | 28300 | 4.62 | inactive | Active | 4.35 | 10.8 | 4.61 | 4 | Activity [35]: Active; Activity [36]: Active; pIC50 [22]: 4.49; pIC50 [23]: 4.33; Activity [24]: 4.9 g; inhibition [37]: Active; viability at 25 µM [25]: < 50%; CL/F [26]: 0.183 mL/min; Activity [27]: 5.2 g; Activity [28]: 0 g; pIC50 [29]: 4.36; inhibition [38]: Active; Cmax [31]: 27400 ng/mL; pIC50 [32]: 4.94; Activity [33]: Active; Activity [34]: inactive
